Results: US8067422B2, “Crystal form of phenylamino pyrimidine derivatives” (Natco Pharma Limited, priority 2008, dated 2011)

How the values were obtained:
[1] = test system: Baf3 murine leukemia cells (M351T); test: Blast cell count in nude mice implanted with Baf3 M351T cells; type: in vivo; details: Baf3M351T; Imatinib 10 mg/kg, AN019 20 mg/kg, AN024 20 mg/kg, oral gavage or ip; day 42
Excerpt: Blood smears were obtained via the tail vein or via the femoral vein every 6th day and blast cells counted and graphically represented.
Abdominal swelling and decrease in activity was monitored daily, blood smear taken via the tail vein or the femoral vein every 6th day and H&E stained as per standard protocols. 42 days after implantation, mice were sacrificed and spleens harvested.
Nude mice were intraperitoneally implanted with Baf3 mutant cells (wt, T315I, M351T or E255K). […] Blood was drawn from the femoral vein or tail vein every 6th day and blast cell count determined and graphically represented.

ZR71 breast cancer cells = test: Matrigel invasion assay (modified Boyden chamber), ZR-71; type: cell-based; details: ZR-71
Protocol: (§1) The in vitro invasiveness of 4910, 5310 and U87 glioma cells and MDAMB231 and ZR71 breast cancer cells in the presence of specified concentrations of compounds were assessed using a modified Boyden chamber assay. Cells were treated with these compounds for 48 h. 1×10^6 cells were suspended in 600 μl of serum-free medium supplemented with 0.2% BSA and placed in the upper compartment of the transwell chambers (Corning Costar Fischer Scientific Cat #07-200-158, Pittsburgh Pa.) coated with Matrigel (0.7 mg/ml). The lower compartment of the chamber was filled with 200 μl of serum medium and the cells were allowed to migrate for 24 h. After incubation, the cells were fixed and stained with Hema-3 and quantified as previously described (Mohanam et al. 1993). The migrated cells were imaged microscopically to determine the reduction in invasiveness induced by the compounds of this invention.

4910 glioma cells [2] = test: Matrigel invasion assay (modified Boyden chamber), 4910; type: cell-based, human
Protocol: as §1

U87 glioma cells [3] = test: Matrigel invasion assay (modified Boyden chamber), U87; type: cell-based; details: U87
Protocol: as §1

[4] = test system: MDAMB231 breast cancer cells; test: In vitro angiogenic assay, MDA-MB-231 conditioned media on human dermal endothelial cells; type: cell-based; details: MDA-MB-231 cells
Protocol: (§2) The in vitro angiogenesis of 4910, 5310 and U87 glioma cells and MDAMB231 and ZR71 breast cancer cells in the presence of specified concentrations of compounds were determined as follows, cells (2×10^4/well) were seeded in 8-well chamber slides and were treated with various concentrations of test compounds. After a 24 h incubation period, the conditioned media was removed and added to a 4×10^4 human dermal endothelial cell (monolayer in 8-well chamber slides) and the human dermal endothelial cells were allowed to grow for 72 h. Cells were then fixed in 3.7% formaldehyde and stained with H&E and photographed.

4910 glioma cells [5] = test: In vitro angiogenic assay, 4910 conditioned media on human dermal endothelial cells; type: cell-based; details: 4910 cells
Protocol: as §2

U87 glioma cells [6] = test: In vitro angiogenic assay, U87 conditioned media on human dermal endothelial cells; type: cell-based
Protocol: as §2

[7] = test system: AKT, ERK and Pi3k in 5310 glioma cells; test: Western blot analysis, 5310; type: cell-based
Protocol: (§3) Western blot analysis of 4910, 5310 and U87 glioma cells and MDAMB231 and ZR71 breast cancer cells in the presence of specified concentrations of compounds were assessed as per standard protocols. Cells were treated with AN019, AN024 or Temozolomide at the specified concentrations. 24 h after treatment, cells were collected and cell lysates extracted. Equal quantities of proteins were fractionated by SDS-PAGE. The fractionated proteins were blotted on to nylon membranes and immunoprobed for AKT, ERK and Pi3k. Breast cancer cell protein isolates were additionally immunoprobed for EGFR, ErbB1, ErbB2 and ErbB3.

[8] = test system: AKT, ERK and Pi3k in ZR71 breast cancer cells; test: Western blot analysis, ZR71; type: cell-based
Protocol: as §3

[9] = test system: pAKT and pERK in glioma and breast cancer cells; test: Western blot analysis, pAKT and pERK (cell line not specified); type: cell-based; details: both with and without radiation
Protocol: as §3

K562 = test: ED50 (po) in leukemic mice (K562)

Compound: Cc1ccc(NC(=O)c2cc(C(F)(F)F)cc(C(F)(F)F)c2)cc1Nc1nccc(-c2cccnc2)n1 [AN019, (3,5-bis trifluoromethyl)-N-[4-methyl-3-(4-pyridin-3yl-pyrimidin-2ylamino)-phenyl]-benzamide]
- Blast cell count in blood smears [1]: significant decrease in blast cell count
- ±Change in invasion after radiation (ZR71 breast cancer cells): −14%
- ±Change in invasion after radiation (4910 glioma cells [2]; 4910): −27%
- +Radiation % Invasion (4910 glioma cells [2]; 4910, with radiation, 48 h treatment): 15%
- ±Change in invasion after radiation (U87 glioma cells [3]): 0%
- Inhibition of angiogenesis ([4]; after radiation): slight inhibition
- Inhibition of angiogenesis ([4]; control condition (without radiation)): slight inhibition
- Inhibition of angiogenesis (4910 glioma cells [5]; after radiation): increase in angiogenic inhibition
- Inhibition of angiogenesis (4910 glioma cells [5]; without radiation): inhibition of angiogenesis similar to MDA-MB-231 cells
- Inhibition of angiogenesis (U87 glioma cells [6]; after radiation): significant retardation in angiogenesis
- Inhibition of angiogenesis (U87 glioma cells [6]; without radiation): significant retardation in angiogenesis
- AKT expression levels (Western blot) [7]; 5310: decrease in AKT expression levels
- PI3k levels (Western blot) ([7]; 5310, after radiation): reappeared after radiation treatment
- PI3k levels (Western blot) ([7]; 5310, without radiation): almost undetectable
- AKT levels (Western blot) ([8]; ZR71, after radiation): enhanced after radiation
- AKT levels (Western blot) ([8]; ZR71, unirradiated): decrease in AKT levels
- PI3k levels (Western blot) ([8]; ZR71, with radiation): absent
- PI3k levels (Western blot) ([8]; ZR71, without radiation): absent
- pERK levels (Western blot) [9]: reduced significantly
- Therapeutic index - LD50/ED50 (K562; Leukemic mice (K562)): 98.5
- ED50 (K562; Mus musculus, K562, po, read-out: ED50 (po) Mice): 11.5 mg/kg
